Data on one compound can be found in US11260083B2, “Compositions and methods for treating and preventing graft versus host disease” (The Regents of the University of Michigan, priority 2016, dated 2022).

For assay [1], the system named is C3H.SW (H-2b) → C57BL/6J (H-2b) BMT recipients. Kind of assay: MHC-matched, minor antigen mismatched BMT model with butyrate. The class given is in vivo, mouse. The method, then: BMTs were performed as previously described (Reddy, P. et al. A crucial role for antigen-presenting cells and alloantigen expression in graft-versus-leukemia responses. Nat. Med. 11, 1244-1249 (2005); 15). Briefly, syngeneic (BALB/c→BALC/c or C57BL/6J→C57BL/6J) and allogeneic (C57BL/6J→BALB/c or C3H.sw→C57BL/6J) recipients received lethal irradiation. On day −1, BALB/c recipients received a total of 800 cGy of irradiation (split dose separated by 3 hours) and B6 animals received a single dose of 1000 cGy. […] Survival was monitored daily and the recipient body weight and GVHD clinical scores were determined weekly, as described previously42. […]
Systemic administration of HDACi decreases acute GVHD (Reddy, P. et al. Histone deacetylase inhibitor suberoylanilide hydroxamic acid reduces acute graft-versus-host disease and preserves graft-versus-leukemia effect. Proc Natl Acad Sci USA 101, 3921-3926 (2004); Reddy, P. et al. Histone deacetylase inhibition modulates indoleamine 2,3-dioxygenasedependent DC functions and regulates experimental graft-versus-host disease in mice. J. Clin. Invest. 118, 2562-2573 (2008); Sun, Y. et al. Cutting edge: Negative regulation of dendritic cells through acetylation of the nonhistone protein STAT-3. J Immunol 182, 5899-5903 (2009)). It was therefore determined if increasing local levels of endogenous HDACi, butyrate, would impact GVHD severity. […]

A further assay concerns primary C57BL/6J IECs. Kind of assay: CTL assay: allogeneic CD8+ T cell killing of IECs. Conditions: butyrate pre-treated overnight, vs control. The class given is cell-based, mouse. The method, then: CD8+ T cells were isolated from Balb/c (H-2d) mice using anti-CD8 microbeads and LS columns (Miltenyi Biotec) following the manufacturer's instructions. CD8+ T cells were primed in the presence of irradiated (30 Gy) C57BL/6J (H-2b) splenocytes for 6 days prior to culture with primary IECs for 6 h and 16 h. Primary C57BL/6J IECs were harvested and incubated overnight in the presence or absence of butyrate 1 mM in gelatin coated (Cell Biologics Inc.; Chicago, Ill.) 100 mm-culture dishes (Fisher Scientific).
The potential mechanisms that contribute to butyrate-induced protection from severe GVHD were explored. Because (a) butyrate is decreased in IECs, (b) administration of butyrate mitigated GI GVHD independent of Treg cells, but (c) improved junction integrity, it was explored whether butyrate had direct effects on protecting IECs from allo-T cell mediated damage and conditioning. IECs were treated ex vivo with vehicle or butyrate for 24 hours irradiation (6 Gy) or no-irradition, followed by 24 hours of additional incubation with butyrate was performed. […] The ability of butyrate-treated IECs to withstand damage mediated by alloreactive T cells was determined by isolating and culturing primary IECs with butyrate or vehicle control, overnight. […] Because butyrate is a primary energy source for IECs 1-13, it was next determined whether butyrate enhances survival and growth of IECs in vitro. […]

The subject of assay [2] is parent (C57BL/6J) into F1 (B6D2F1) BMT recipients. The assay can be described thus: Non-irradiated parent into F1 BMT model with butyrate. The class given is in vivo, mouse. Conditions: intragastric butyrate.
The next assay relates to GI-barrier. The assay can be described thus: FITC-dextran assay (intestinal permeability). The class given is in vivo, mouse. Conditions: 21 days following transplant; butyrate-treated vs vehicle allo-BMT recipients. The method, then:
Food and water was withheld from all mice for four hours on day 21 post bone marrow transplant. FITC-dextran (Sigma-Aldrich; St. Louis, Mo.) was administered by 20G-1.5″ flexible intragastric gavage needle (Braintree Scientific; Braintree, Mass.) at a concentration of 50 mg/ml in PBS. BMT recipients received 800 mg/kg (˜16 mg/mouse). Four hours later, serum was collected from peripheral blood, diluted 1:1 with PBS, and analyzed on a plate reader at excitation/emission wavelength of 485 nm/535 nm. Concentrations of FITCdextran experimental samples were determined based on a standard curve.
Intestinal permeability after allo-BMT was assessed by intragastric administration of FITC-dextran, a non-metabolized carbohydrate (Hanash, A. M. et al. Interleukin-22 protects intestinal stem cells from immune-mediated tissue damage and regulates sensitivity to graft versus host disease. Immunity 37, 339-350 (2012)).

Assay [3] relates to allogeneic (C57BL/6J→BALB/c) BMT recipients. Kind of assay: Allo-BMT with Treg-depleted donor T cells (CD4+CD25− or DREG + DT) and butyrate. The class given is in vivo, mouse. The method, then: To further determine whether the salutary effects of local treatment with butyrate on GI GVHD were dependent on donor Treg cells, a BMT was performed utilizing the same HC mismatched BMT model in which C57BL/6J (H-2b) cells are transferred to Balb/c (H-2d) mice. T cell-depleted (TCD) bone marrow was transplanted and purified CD4+CD25− T cells from donors. Vehicle or butyrate was administered to the recipients daily for 1 week, then every other day thereafter as above. […]. J. Exp. Med. 204, 57-63 (2007); Lahl, K. & Sparwasser, T. In vivo depletion of FoxP3+ Tregs using the DEREG mouse model. […]. The Treg depleted T cells were then used as donor cells in the major MHC mismatch model used above. […] To further examine whether the local administration of butyrate impacted donor T cells directly, the HDAC and HAT enzymatic activity was determined in donor T cells harvested from the recipient animals. Both the HDAC activity or HAT activity in the donor T cells harvested from the recipient spleen were similar between butyrate and vehicle treated allogeneic animals.

[4] abbreviates: Treg depleted (DREG + DT) donor T cells.

Consider `CCCC(=O)[O-].[Na+]` [butyrate, sodium butyrate], for which the “histological scores in both the intestines and liver” value in assay [1] (21 days following BMT, minor antigen mismatch) is given as “decreased histological scores”. Further, the survival entry in assay [1] (minor antigen mismatched model), in assay [2] and in assay [3] (setting [4]) was “improved survival” throughout. Besides, the “IECs succumbing to CD8+ T cell killing” value in the assay with primary C57BL/6J IECs (6 hours co-culture) and in the assay with primary C57BL/6J IECs (16 hours co-culture) was “Fewer butyrate pre-treated IECs succumbed” throughout. The weight loss result in assay [2] is “Significantly less weight loss”; in assay [3] (setting [4]) it was “less weight loss”. Besides, the “detectable FITC-dextran in the serum” value with GI-barrier is “significantly less”. Also, the GVHD result in assay [3] (TCD bone marrow and purified CD4+CD25− donor T cells) is on record as “Decreased GVHD”. Also, the “clinical GVHD” value in assay [3] (setting [4]) was “Significantly improved clinical GVHD”.
